The assay deals with T1, recombinant HIV reverse transcriptase (HIV RTR) (Human immunodeficiency virus type 1 group M subtype B, UniProt P04585).
T1 construct: recombinant HIV reverse transcriptase (HIV RTR)
The experiment in a line: Reverse Transcriptase Assay: incorporation of tritiated deoxyguanosine monophosphate into acid-precipitable cDNA. The assay is classed as biochemical. To be noted: purified HIV RTR; poly r(C).oligo d(G)12-18 and dGTP at about Km; 37° C. for 45 minutes; read-out: calculated IC50. The protocol:
Reverse Transcriptase Assay
The assay measures the incorporation of tritiated deoxyguanosine monophosphate by recombinant HIV reverse transcriptase (HIV RTR) (or other RT) into acid-precipitable cDNA at the Km values of dGTP and poly r(C).cndot.oligo d(G)12-18. Compounds (I) and (II) inhibit this incorporation.
Thirty uL of a reaction mixture containing equal volumes of: 500 mM Tris.cndot.HCl (pH 8.2), 300 mM MgCl2, 1200 mM KCl, 10 mM DTT, 400 μg/mL poly r(c).cndot.oligo d(G) [prepared by dissolving 1.5 mg (25 U) poly r(C).cndot.oligo d(G) in 1.5 ml sterile distilled H2 O and diluting to 400 μg/ml], 0.1 μCi/μl [^3 H] dGTP, 160 μM dGTP, were added to 10 μl sterile distilled H2 O, 2.5 μl of potential inhibitor. Ten μL of 3.2 nM purified HIV RTR were added to start the reaction. The mixture was incubated at 37° C. for 45 minutes.
After incubation was complete, the tubes were cooled in ice for 5 minutes. Ice-cold 13% TCA containing 10 mM NaPPi (200 μl) was added and the mixture incubated on ice for 30 minutes. The precipitated cDNA was removed by filtration using presoaked glass filters [TCA, NaPPi ]. The precipitate was then washed with 1N HCl, 10 mM NaPPi. The filter discs were then counted in a scintillation counter. […]
Compounds (I) and (II) were evaluated using the methodology described above.

One may read the IC50 as the point on the concentration scale where inhibition reaches its midpoint. `CCc1cc(NCc2nc3c(C)ccc(C)c3o2)c(=O)[nH]c1CO` [Compound (II), 3-[(4,7-dimethylbenzoxazol-2-yl)methylamino]-5-ethyl-6-hydroxymethyl-2(1H)-pyridinone]: the concentration for half-maximal inhibition (IC50) is about 33 nM.
For the compound `Cc1[nH]c(=O)c(NCc2nc3c(C)ccc(C)c3o2)cc1C(C)O` (centres unmarked) [Compound (I), 3-[(4,7-dimethylbenzoxazol-2-yl)methylamino]-5-(1-hydroxyethyl)-6-methyl-2(1H)-pyridinone], the IC50 is about 405 nM.

Values taken from patent US5169769A, “Method of hydroxylating substituted 3-aminopyridinones using mammalian tissue” (Merck & Co., Inc., priority 1991, dated 1992).
